In patent US20100144860A1, “Transglutaminase Inhibitor Comprising EGCG And A Method For Producing Thereof” (priority 2007, published 2010):
pIC50: −log10 of the molar value.

Molecular target: T1, Transglutaminase 2 (Cavia cutleri, UniProt P08587)
T1 construct: purchased Sigma-Aldrich T5398
T1 sequence (P08587 1-690): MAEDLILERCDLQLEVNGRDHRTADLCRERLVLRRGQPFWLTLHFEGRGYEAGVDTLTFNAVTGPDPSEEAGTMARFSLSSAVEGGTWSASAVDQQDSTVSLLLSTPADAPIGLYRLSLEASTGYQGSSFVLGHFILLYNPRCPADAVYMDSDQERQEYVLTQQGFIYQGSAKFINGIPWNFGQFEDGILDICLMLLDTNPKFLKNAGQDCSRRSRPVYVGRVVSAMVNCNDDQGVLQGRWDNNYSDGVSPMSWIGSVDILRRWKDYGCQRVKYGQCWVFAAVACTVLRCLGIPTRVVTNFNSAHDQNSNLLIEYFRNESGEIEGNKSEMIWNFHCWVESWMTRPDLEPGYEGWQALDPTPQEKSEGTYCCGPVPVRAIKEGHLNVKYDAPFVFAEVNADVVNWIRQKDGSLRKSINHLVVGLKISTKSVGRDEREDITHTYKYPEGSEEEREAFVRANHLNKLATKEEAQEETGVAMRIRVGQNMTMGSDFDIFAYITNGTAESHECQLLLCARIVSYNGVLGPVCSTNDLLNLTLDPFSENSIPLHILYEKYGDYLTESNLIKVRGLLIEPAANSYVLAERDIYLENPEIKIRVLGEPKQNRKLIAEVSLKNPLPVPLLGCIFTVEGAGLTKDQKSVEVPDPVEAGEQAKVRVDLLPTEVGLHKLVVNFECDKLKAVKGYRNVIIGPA
Assay: In vitro assay for inhibition of transglutaminase activity ([1,4-14C] putrescine incorporation into succinylated casein)
Type: biochemical
Details: for activity of transglutaminase, Mean: mean of three assays, relative to DMSO control; for activity of transglutaminase, Assay 1 / activity of transglutaminase, Assay 2 / activity of transglutaminase, Assay 3: radioactivity compensated by DMSO-control group (=1.0000)
Protocol: To measure the inhibitory activity of EGCG which competes with putrescine, the transglutaminase-catalyzed reaction between [1,4,-^14C] putrescine and succinylated casein were observed.
Succinylated casein was purchased from Calbiochem (Cat. No. 573464), and 1 g of the powder was dissolved in 50 ml of a reaction buffer solution containing 5 mM DTT (0.1 M Tris-acetate (pH 8.0), 10 mM CaCl2, 0.15 M NaCl, 1.0 mM EDTA). This solution was stored in a deep freezer for further use. [1,4-^14C] Putrescine dihydrochloride was purchased from GE Healthcare (Cat. No. CFA301), and the stock solution was diluted with distilled water to yield a radiological dose of 5 μCi/ml. Transglutaminase 2 was purchased from Sigma-Aldrich (Cat. No. T5398), and diluted with distilled water to yield a final concentration of 1 unit/ml. EGCG (Sigma-Aldrich, Cat. No. E4143) was dissolved in DMSO at a concentration of 10 mM to prepare its stock solution, and the stock solution was diluted with DMSO to prepare solutions having various concentrations.
450 μl of succinylated casein solution and 50 μl of [1,4-^14C] putrescine dihydrochloride solution were mixed together to prepare a substrate solution. 96 μl of the reaction buffer, 3 μl of the stock solution of EGCG, and 1 μl of the stock solution of transglutaminase were mixed together to prepare each sample, followed by incubation at 37° C. for 10 min. 500 μl of the substrate solution and 100 μl of sample solution were mixed well, and the mixture was incubated at 37° C. for 2 hrs, before termination with 4.5 ml of cold (4° C.) 7.5% TCA. The final solution was stored at 4° C. for 1 hr. The TCA-precipitates were filtered through a GF/glass fiber filter, washed with 25 ml of cold 5% TCA, and dried. Radioactivity of crosslinked protein was measured using a (β-counter (Beckman Coulter), and compensated by the activity of DMSO-control group as a standard. The activity of transglutaminase was represented by the measured values. The assay was repeated three times under the same conditions, and the results are shown in the following Table 1.

SMILES: O=C(O[C@@H]1Cc2c(O)cc(O)cc2O[C@@H]1c1cc(O)c(O)c(O)c1)c1cc(O)c(O)c(O)c1 [EGCG, [2R, 3R]-2[3,4,5-trihydroxyphenyl]-3,4-dihydro-1[2H]-benzopyran-3,5,7-triol-3-[3,4,5-trihydroxybenzonate]]
- activity of transglutaminase, Mean (EGCG 0.5 μM): 0.5383
- activity of transglutaminase, Assay 1 (EGCG 0.5 μM): 0.5166
- activity of transglutaminase, Assay 2 (EGCG 0.5 μM): 0.5690
- activity of transglutaminase, Assay 3 (EGCG 0.5 μM): 0.5295
- activity of transglutaminase, Mean (EGCG 1.0 μM): 0.3677
- activity of transglutaminase, Assay 1 (EGCG 1.0 μM): 0.3950
- activity of transglutaminase, Assay 2 (EGCG 1.0 μM): 0.3873
- activity of transglutaminase, Assay 3 (EGCG 1.0 μM): 0.3207
- activity of transglutaminase, Mean (EGCG 2.0 μM): 0.2001
- activity of transglutaminase, Assay 1 (EGCG 2.0 μM): 0.2009
- activity of transglutaminase, Assay 2 (EGCG 2.0 μM): 0.2288
- activity of transglutaminase, Assay 3 (EGCG 2.0 μM): 0.1707
- activity of transglutaminase, Mean (EGCG 3.0 μM): 0.1765
- activity of transglutaminase, Assay 1 (EGCG 3.0 μM): 0.1911
- activity of transglutaminase, Assay 2 (EGCG 3.0 μM): 0.1902
- activity of transglutaminase, Assay 3 (EGCG 3.0 μM): 0.1482
- activity of transglutaminase, Mean (EGCG 5.0 μM): 0.1064
- activity of transglutaminase, Assay 1 (EGCG 5.0 μM): 0.1246
- activity of transglutaminase, Assay 2 (EGCG 5.0 μM): 0.0947
- activity of transglutaminase, Assay 3 (EGCG 5.0 μM): 0.1000
- activity of transglutaminase, Mean (EGCG 10.0 μM): 0.0879
- activity of transglutaminase, Assay 1 (EGCG 10.0 μM): 0.1029
- activity of transglutaminase, Assay 2 (EGCG 10.0 μM): 0.0726
- activity of transglutaminase, Assay 3 (EGCG 10.0 μM): 0.0881
- activity of transglutaminase, Mean (EGCG 50.0 μM): 0.0871
- activity of transglutaminase, Assay 1 (EGCG 50.0 μM): 0.0861
- activity of transglutaminase, Assay 2 (EGCG 50.0 μM): 0.0903
- activity of transglutaminase, Assay 3 (EGCG 50.0 μM): 0.0849
- inhibition of the activity of transglutaminase (in words) (FIG. 1, relative inhibition activities): inhibited in an EGCG concentration-dependent manner
- pIC50 (calculated by nonlinear regression from mean values): 6.29
